We go through one substance from patent US20130064831A1, “IMMUNOTHERAPEUTIC DOSING REGIMENS AND COMBINATIONS THEREOF” (Bristol-Myers Squibb Company, priority 2010, published 2013).

Data set [1] relates to ovarian or prostate cancer. As to conditions: some patients with ovarian or prostate cancer; cited from earlier work.
The next data set concerns melanoma. The note with it: cited from earlier work.
A further data set deals with NSCLC Subjects. Nature of the data set: CA184041 phase II trial: safety, exposure and discontinuation. The note with it: in vivo. The method, then:
Blinded Study Drug: Ipilimumab 10 mg/kg or matched placebo administered as a single dose intravenously over 90 minutes every 3 weeks (up to 6 doses) as part of induction. Subjects may receive additional maintenance Ipilimumab/placebo at a dose of 10 mg/kg and administered intravenously over 90 minutes every 12 weeks starting 24 weeks after the first Ipilimumab/placebo dose. Dose reductions were not permitted. […] Dose modifications (reductions as well as delays) are as per product label. PARAPLATIN®: AUC=6 administered as a single dose intravenously over 30 minutes every 3 weeks (up to 6 doses). Dose modifications (reductions as well as delays) are as per product label. Treatment with blinded Ipilimumab (active or placebo) proceeded until immune-related tumor progression as defined by the irRC is observed or intolerable toxicity occurs.
Safety was summarized and listed for all treated subjects using the National Cancer Institute (NCI) Common Terminology Criteria for Adverse Events (CTCAE) version 3.0 by treatment arm for each tumor type. All treatment emergent AEs, drug-related treatment emergent AEs, serious AEs and drug-related SAEs were tabulated using worst grade per NCI CTCAE v3.0 criteria by system, organ, class, and preferred term. The listings by subject were produced for all deaths, all SAEs and all AEs leading to discontinuation of study drug. […]

On to “Ipilimumab: fully human IgG1 anti-CTLA-4 monoclonal antibody, CAS 477202-00-9, light/heavy chain variable regions SEQ ID NO:1 and 2”, for which the serum tumor markers result in data set [1] is recorded as “reductions of serum tumor markers”. Moreover, in the data set with melanoma (initial studies in patients with melanoma), the tumor regressions entry is “objective durable tumor regressions”. The antitumor activity result in the data set on melanoma (patients with advanced melanoma) is on record as “demonstrated antitumor activity”. Further, the “potentiation of chemotherapy-related toxicity” value in the data set on NSCLC Subjects is given as “did not potentiate chemotherapy-related toxicity”.
